PMC8624485, “Modeling, Synthesis, and Biological Evaluation of Potential Retinoid-X-Receptor (RXR) Selective Agonists: Analogs of 4-[1-(3,5,5,8,8-Pentamethyl-5,6,7,8-tetrahyro-2-naphthyl)ethynyl]benzoic Acid (Bexarotene) and 6-(Ethyl(4-isobutoxy-3-isopropylphenyl)amino)nicotinic Acid (NEt-4IB)” (International Journal of Molecular Sciences, 2021)

Key:
Type in all cases: cell-based
RXRα = molecular target: T1, RXRα (Homo sapiens, UniProt P19793); experiment: UAS/Gal4 GFP reporter assay of RXRα activation in UAS-GFP x KMT2A-MLLT3 cells; conditions: RXRα activation; value (SD); Table 1 does not say whether GFP or Luc assay; read-out: EC50 (nM) +/−(SD)
T1 construct: expressed in transfected cells; host or cells: UAS-GFP x KMT2A-MLLT3 cells (retroviral transduction)
T1 sequence (P19793 227-458 limits assumed): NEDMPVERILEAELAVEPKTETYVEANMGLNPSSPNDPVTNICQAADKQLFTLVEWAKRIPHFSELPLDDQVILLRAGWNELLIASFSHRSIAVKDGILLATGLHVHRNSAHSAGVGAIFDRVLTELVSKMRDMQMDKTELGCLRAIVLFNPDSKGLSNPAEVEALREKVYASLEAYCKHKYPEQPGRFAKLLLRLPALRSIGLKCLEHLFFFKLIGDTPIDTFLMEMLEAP
Experimental: Cells were treated, and after 48 h, GFP measured by a ZE5 Flow Cytometer (Biorad).

[1] = molecular target: T2, RXR-LXR heterodimer (LXR/LXRE) (Homo sapiens, UniProt P19793); experiment: LXRE-luciferase transactivation assay in HEK293 cells; conditions: 100 nM compound alone, HEK293, bexarotene (1) set to 100%
T2 construct: expressed in transfected cells; host or cells: HEK293 cells
T2 sequence (P19793 1-462): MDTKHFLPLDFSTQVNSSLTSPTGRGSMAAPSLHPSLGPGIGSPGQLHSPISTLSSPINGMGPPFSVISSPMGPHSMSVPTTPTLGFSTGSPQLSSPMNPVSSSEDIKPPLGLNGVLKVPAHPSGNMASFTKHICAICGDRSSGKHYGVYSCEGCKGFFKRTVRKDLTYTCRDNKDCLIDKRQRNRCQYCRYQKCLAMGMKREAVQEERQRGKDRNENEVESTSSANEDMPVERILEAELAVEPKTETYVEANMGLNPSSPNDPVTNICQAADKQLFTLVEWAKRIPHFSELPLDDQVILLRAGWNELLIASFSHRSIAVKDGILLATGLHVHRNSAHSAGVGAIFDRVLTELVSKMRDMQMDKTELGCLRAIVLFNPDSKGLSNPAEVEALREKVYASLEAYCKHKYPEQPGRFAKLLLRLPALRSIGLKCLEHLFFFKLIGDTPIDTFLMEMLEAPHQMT
T2 sequence (Q13133 1-447 partner): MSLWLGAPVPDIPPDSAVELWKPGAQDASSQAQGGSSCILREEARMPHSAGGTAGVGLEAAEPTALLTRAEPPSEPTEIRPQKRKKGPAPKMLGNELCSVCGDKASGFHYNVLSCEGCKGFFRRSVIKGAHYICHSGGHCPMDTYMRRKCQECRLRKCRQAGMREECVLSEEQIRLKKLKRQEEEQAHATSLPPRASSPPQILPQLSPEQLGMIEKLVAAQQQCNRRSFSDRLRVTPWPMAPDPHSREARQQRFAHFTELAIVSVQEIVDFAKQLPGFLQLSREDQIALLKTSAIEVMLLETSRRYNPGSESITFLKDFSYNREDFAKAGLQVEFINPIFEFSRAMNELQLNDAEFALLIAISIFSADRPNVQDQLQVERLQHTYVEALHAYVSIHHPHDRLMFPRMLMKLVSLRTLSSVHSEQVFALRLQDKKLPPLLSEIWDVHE
Experimental: The activation from this natural LXRE in our system was tested in the presence of either 100 nM RXR agonists alone or in combination with 100 nM of both the RXR agonist and LXR agonist T0901317 (TO). […] The LXRE-mediated assays were performed using human embryonic cells (HEK293) seeded at a density of 60,000 cells/well in a 24-well plate and maintained in DMEM (Hyclone) supplemented with 10% fetal bovine serum, 100 µg/mL streptomycin, 100 U/mL penicillin (Invitrogen, Carlsbad, CA, USA) at 37 degrees Celsius, 5% CO2 for 24 h. The cells were co-transfected with 250 ng of an LXRE-luciferase reporter gene, 50 ng of pSG5-human RXRα, and 20 ng of renilla control plasmid. […] After 24 h post treatment, the cells were lysed and the transcriptional activity mediated by the LXRE was measured using the Dual Luciferase Assay System (Promega, Madison, WI) in a Sirius FB12 luminometer (Berthold Detection Systems, Pforzheim, Germany) according to the manufacturer’s protocol. The data are a compilation of between three and six independent assays with each treatment group dosed in triplicate for each independent assay. […] Bars on all graphs indicate standard deviation of the replicate experiments.
Cells were transfected for 24 h utilizing a liposome-mediated transfection protocol and then treated with the ethanol vehicle, or 100 nM of the indicated compound alone or in combination with 100 nM TO901317 (TO). […] (A) Human HEK-293 cells were transfected and treated as described in Figure 8.

human RARα = molecular target: T3, human RARα (Homo sapiens, UniProt P10276); experiment: RARE-luciferase reporter assay in HEK293 cells; conditions: HEK293, all-trans-RA set to 100%
T3 construct: expressed in transfected cells; host or cells: HEK293 cells
T3 sequence (P10276 1-462): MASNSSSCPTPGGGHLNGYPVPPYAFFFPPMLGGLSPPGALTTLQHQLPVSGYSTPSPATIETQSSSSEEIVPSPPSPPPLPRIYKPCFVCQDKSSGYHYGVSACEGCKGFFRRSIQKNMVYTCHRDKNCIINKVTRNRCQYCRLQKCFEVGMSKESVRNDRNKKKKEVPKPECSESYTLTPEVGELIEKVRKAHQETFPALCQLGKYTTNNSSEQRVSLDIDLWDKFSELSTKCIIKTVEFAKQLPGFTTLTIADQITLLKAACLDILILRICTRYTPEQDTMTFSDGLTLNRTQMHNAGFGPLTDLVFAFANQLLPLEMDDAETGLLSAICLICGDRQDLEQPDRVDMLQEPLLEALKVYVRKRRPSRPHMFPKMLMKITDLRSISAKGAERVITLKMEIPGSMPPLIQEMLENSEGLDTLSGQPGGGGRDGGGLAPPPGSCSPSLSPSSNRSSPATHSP
Experimental: Human embryonic kidney cells (HEK293) were plated at 60,000 cells per well in a 24-well plate and maintained as described above. After 24 h, the cells were transfected with 250 ng pTK-DR5(X2)-Luc, 25 ng pCMX-human RARα, and 20 ng renilla utilizing 1.25 µL polyethylenimine (PEI) per well for 24 h. The sequence of the double DR5 RARE is: 5′-[…]-3′ (DR5 responsive elements underlined). The cells were treated with ethanol vehicle (0.1%), all-trans-retinoic acid (RA, the ligand for RAR), or the indicated rexinoid at a final concentration of 10 nM. After 24 h of treatment, the retinoid activity was measured as described above (dual luciferase assay). […] Three independent assays were conducted with triplicate samples for each treatment group. The value for RA was set to 100%. […]

RXRA = molecular target: T4, RXRA (Homo sapiens, UniProt P19793); experiment: ApoA1-Luc luciferase assay in 293T cells with pBABE-RXRA; conditions: pBABE-RXRA and ApoA1-Luc, nonconverged, read-out: EC50 (nM), luciferase (Figure 7C)
T4 construct: expressed in transfected cells; host or cells: 293T cells
T4 sequence (P19793 1-462): T2 sequence (P19793 1-462)
Experimental: 293T cells were transfected using Lipofectamine 2000 (Invitrogen). Six hours after transfection, the cells were collected and plated into a 48-well plate in 1% BSA media in triplicate and treated with compounds. After 40 h incubation, the cells were harvested and assayed for luciferase (Luc Assay System with Reporter Lysis Buffer, Promega) in a Beckman Coulter LD400 plate reader.

Saccharomyces cerevisiae = Saccharomyces cerevisiae toxicity assay; conditions: 3 h incubation, colony count vs DMSO only control; highest concentration tested 11 µg/µL
Experimental: These compounds were also assessed for mutagenicity and toxicity in Saccharomyces cerevisiae and the toxicity results are summarized in Table 1. No compound was mutagenic in this assay.
All compounds were tested for toxicity and mutagenicity using a Saccharomyces cerevisiae based assay as described previously. Toxicity was assessed in this assay (Table 1), comparing growth on plates to control treatments. Compounds were solubilized in DMSO at increasing concentrations and cells were incubated with the compounds for 3 h before plating on selective media or YPD to assess toxicity and mutagenicity. Cytotoxicity was assessed as described. Growth of colonies on the full nutrient YPD plate for each treatment was compared to the DMSO only control. The concentration at which 50% cell death (as indicated by colony count compared to DMSO only control) +/−10% cell death is reported as the 50% killing rate. The highest concentration tested was 11 µg/µL.

SMILES	EC50 (RXRα)	LXRE Activity (% of Bex) [1]	RARE Activity (%RA at 10 nM) (human RARα)	EC50 (RXRA)	Cyto-Toxicity (50% Cell Death) (Saccharomyces cerevisiae)
CCN(c1ccc(C(=O)O)c(F)c1)c1ccc(OCC(C)C)c(C(C)C)c1 [Compound 29, 4-(ethyl(4-isobutoxy-3-isopropylphenyl)amino)-2-fluorobenzoic acid]	> 1000 nM	61.7 % of Bex	4.0 %RA	> 1000 nM	1 µg/µL
CC(C)COc1ccc(-n2nnc3cc(C(=O)O)ccc32)cc1C(C)C [Compound 31, 1-(4-isobutoxy-3-isopropylphenyl)-1H-benzo[d][1,2,3]triazole-5-carboxylic acid]	> 1000 nM	64.5 % of Bex	3.1 %RA	> 1000 nM	none
